This assay has as its system human cell co-culture system. Put plainly: In vitro angiogenesis co-culture system (angiogenesis kit, TCS Biologicals), tubule formation. The conditions noted are these: 11 days co-culture; PECAM-1 staining; Egr-1 DNA 0.5-2.5 μg per well, VEGF protein 2 ng/ml, suramin 20 μM. The format is cell-based. The protocol:
Egr-1 under the control of the hCMV promoter (Houston et al, Arterioscler. Thromb. Vasc. Biol., 19; 281-289, 1999) was transfected into a human cell co-culture system designed to measure angiogenesis in vitro. The angiogenesis kit (TCS Biologicals) was used as described according to the manufacturer's instructions using VEGF protein (2 ng/ml) and suramin (20 μM) as positive and negative controls respectively for angiogenesis.
Optimisation of transfection in the co-culture system was performed using pGL3 control luciferase (Promega) with 1.0 μg and 0.5 μg CMV-β gal as a normalising plasmid for transfection control. Two ratios of lipid: DNA (v/w) were used; 2:1 and 4:1 (FIG. 3a.). CMV Egr-1 DNA was transfected at 0.5, 1.0, 1.5 and 2.5 μg per well in triplicate in a 24 well microtitre plate using Mirus Transit reagent (Cambridge Biosciences) at a ratio of 2:1 v/w DNA. VEGF protein positive control and suramin negative control was added to triplicate wells. After 11 days co-culture angiogenesis was determined by staining of cells for the endothelial cell marker PECAM-1 and visualisation using BCIP/NBT substrate.
Representative images of tubule formation using all four doses of Egr-1 expression plasmid together with VEGF (positive control) and suramin (negative control) were captured and processed by image analysis using Quantimet 600 image analyser and associated software. […]

For one molecule, tubule formation results are on record in patent publication US20030124554A1, “Screening method for compounds capable of modularing egr-1-regulated expression” (priority 2002, published 2003).

SMILES strings stand for the structures.

On to `Cc1ccc(C(=O)Nc2ccc(S(=O)(=O)O)c3cc(S(=O)(=O)O)cc(S(=O)(=O)O)c23)cc1NC(=O)c1cccc(NC(=O)Nc2cccc(C(=O)Nc3cc(C(=O)Nc4ccc(S(=O)(=O)O)c5cc(S(=O)(=O)O)cc(S(=O)(=O)O)c45)ccc3C)c2)c1` [suramin], for which the tubule formation result is listed as “Decreased tubule formation”.
